Reference: patent US20040138199A1, “Benzoxazines and derivatives thereof as therapeutic agents” (priority 2002, published 2004)

These molecules were tested against T1, p101/p110γ protein (PI3Kγ) (Homo sapiens, UniProt P48736) (assay: PI3Kγ In Vitro Kinase Assay). Conditions: purified recombinant p101/p110γ with G protein β1/γ2 subunits; 20 μM ATP, 25 μM PIP2; 20 minutes at room temperature; radioactive PIP3 readout.
T1 construct: HA; made in house; host or cells: Spodoptera frugiperda (Sf9) cells, baculovirus coinfection
T1 sequence (P48736 whole entry, species assumed): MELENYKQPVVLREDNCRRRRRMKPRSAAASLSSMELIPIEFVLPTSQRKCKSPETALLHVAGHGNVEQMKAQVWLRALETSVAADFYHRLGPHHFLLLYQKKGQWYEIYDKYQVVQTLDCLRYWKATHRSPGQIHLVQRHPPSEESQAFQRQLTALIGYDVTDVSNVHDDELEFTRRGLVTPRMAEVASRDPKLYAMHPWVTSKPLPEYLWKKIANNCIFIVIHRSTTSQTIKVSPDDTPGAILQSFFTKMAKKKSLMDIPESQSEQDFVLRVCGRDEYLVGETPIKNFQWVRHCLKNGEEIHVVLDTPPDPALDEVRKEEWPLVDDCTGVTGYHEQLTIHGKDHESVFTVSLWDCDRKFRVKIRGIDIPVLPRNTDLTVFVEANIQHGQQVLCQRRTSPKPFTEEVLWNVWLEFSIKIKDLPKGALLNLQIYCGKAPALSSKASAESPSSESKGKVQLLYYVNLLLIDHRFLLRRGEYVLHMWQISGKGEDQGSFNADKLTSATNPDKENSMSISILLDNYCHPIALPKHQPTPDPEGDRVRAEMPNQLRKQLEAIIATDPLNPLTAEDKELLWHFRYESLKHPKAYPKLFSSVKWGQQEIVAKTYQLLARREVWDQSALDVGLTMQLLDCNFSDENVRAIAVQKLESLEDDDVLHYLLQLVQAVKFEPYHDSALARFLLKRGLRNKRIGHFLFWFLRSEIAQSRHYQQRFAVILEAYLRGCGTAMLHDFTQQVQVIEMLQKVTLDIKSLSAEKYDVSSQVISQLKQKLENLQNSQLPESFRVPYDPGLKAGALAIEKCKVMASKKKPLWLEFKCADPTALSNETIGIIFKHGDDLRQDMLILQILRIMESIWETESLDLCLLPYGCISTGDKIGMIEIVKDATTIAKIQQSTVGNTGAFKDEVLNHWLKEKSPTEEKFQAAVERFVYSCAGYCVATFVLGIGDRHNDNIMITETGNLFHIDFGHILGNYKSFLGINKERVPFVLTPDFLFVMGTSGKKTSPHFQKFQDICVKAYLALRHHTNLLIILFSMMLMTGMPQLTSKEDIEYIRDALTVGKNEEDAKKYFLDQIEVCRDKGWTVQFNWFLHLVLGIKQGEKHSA
T1 sequence (Q8WYR1 whole entry partner, species assumed): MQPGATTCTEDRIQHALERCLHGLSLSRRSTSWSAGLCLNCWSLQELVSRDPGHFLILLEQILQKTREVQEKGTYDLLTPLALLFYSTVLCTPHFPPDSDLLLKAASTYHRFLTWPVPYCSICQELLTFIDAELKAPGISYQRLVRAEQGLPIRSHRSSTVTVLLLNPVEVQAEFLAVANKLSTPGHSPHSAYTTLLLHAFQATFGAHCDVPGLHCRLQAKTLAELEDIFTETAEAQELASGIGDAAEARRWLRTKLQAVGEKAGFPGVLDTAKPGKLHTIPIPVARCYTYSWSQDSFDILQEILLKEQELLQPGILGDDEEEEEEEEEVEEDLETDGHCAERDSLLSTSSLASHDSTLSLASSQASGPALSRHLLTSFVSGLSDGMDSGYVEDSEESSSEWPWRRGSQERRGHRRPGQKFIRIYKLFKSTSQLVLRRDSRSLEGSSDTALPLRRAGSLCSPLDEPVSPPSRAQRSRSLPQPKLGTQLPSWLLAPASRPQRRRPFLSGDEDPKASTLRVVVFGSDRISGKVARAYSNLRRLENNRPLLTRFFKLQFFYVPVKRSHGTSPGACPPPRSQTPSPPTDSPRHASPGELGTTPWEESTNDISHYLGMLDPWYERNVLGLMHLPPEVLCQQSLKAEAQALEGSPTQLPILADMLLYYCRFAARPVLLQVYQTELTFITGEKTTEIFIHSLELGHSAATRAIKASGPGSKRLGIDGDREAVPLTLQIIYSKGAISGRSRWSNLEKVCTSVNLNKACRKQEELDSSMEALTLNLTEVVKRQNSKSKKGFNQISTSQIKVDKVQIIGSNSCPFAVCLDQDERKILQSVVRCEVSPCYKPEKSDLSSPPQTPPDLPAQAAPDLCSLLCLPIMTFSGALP
Assay type: biochemical
Experimental: Spodtera frugiperda cells, grown in ESF921 media, were coinfected with baculovirus expressing a glu-tagged […] and baculovirus expressing an HA-tagged p110γ, at a 3:1 ratio of p110 baculovirus to p110γ baculovirus. Sf9 cells were grown to 1×10^7 total cells/mL in 10L bioreactors and harvested 48-72 hours post infection. Samples of infected cells were then tested for expression of p101/p110γ PI3 kinase by immunoprecipitation and Western Blot analysis methods (see below).
To purify PI3Kγ, 4 volumes of room temperature hypotonic lysis buffer (1 mM MgCl2, 1 mM DTT, 5 mM EGTA, 1 mM Pefabloc, 0.5 μM aprotinin, […], 2 μM pepstatin, 5 μM E64, pH 8) per gram of cell paste, was poured onto frozen cell pellets with stirring, then lysed in a nitrogen “bomb” at 400 psi (599HC T316, Parr Instrument Co, Moline, Ill.). NaCl was added to 150 mM, and sodium cholate was added to 1% and mixed for another 45 minutes. The lysates were clarified by centrifugation for 25 minutes at 14,000 rpm. The lysates were then loaded over anti-glu-linked Protein-G Sepaharose beads (Covance Research Products, Richmond, Calif.) using 20 mL resin/50 g cell paste. The column was washed with 15 volumes of wash buffer (1 mM DTT, 0.2 mM EGTA, 1 mM Pefabloc, 0.5 μM aprotinin, 5 μM leupeptin, 2 μM pepstatin, 5 μM E64, 150 mM NaCl, 1% sodium cholate, pH 8). PI3Kγ was eluted with 6 column volumes of wash buffer that contain 100 μg/mL of a peptide that competes for binding of the glu tag. The column fractions with the eluted protein (determined by taking OD280 readings) were collected and dialyzed in 0.2 mM EGTA, 1 mM DTT, 1 mM Pefabloc, 5 μM leupeptin, 0.5% sodium cholate, 150 mM NaCl, and 50% glycerol, pH 8. The fractions were stored at −80° C. until further use.
Spodtera frugiperda cells were coinfected with baculovirus expressing a glu-tagged G protein β1 and baculovirus expressing a […] at a 1:1 ratio of glu-tagged G protein β1 baculovirus to G protein β2 baculovirus. Sf9 cells are grown in 10 L bioreactors and harvested 48-72 hours post infection. Samples of infected cells were tested for G protein β1/β2 expression by Western Blot analysis, as described below. Cell lysates were homogenized and loaded onto a column of glu-tagged beads as in Biological Example 1 and competed off the column with a glu peptide as described in Biological Example 1.
The inhibitory properties of the compounds in Table 1 were assayed in an in vitro PI3K assay. In a 96-well polypropylene plate, each well was spotted with 2 μL of 50 times the desired final concentration of compound in DMSO. Purified recombinant p101/p110γ protein (0.03 μg; ˜2.7 nM) and G protein β1/γ2 subunits (0.09 μg; −57.7 nM) for each reaction was combined in the assay buffer (30 mM HEPES, 100 mM NaCl, 1 mM EGTA, and 1 mM DTT). ATP and [γ-^32P-ATP] (0.09 μCi) were added to this mixture so that the final ATP concentration in the reaction was 20 μM. Lipid micelles were formed by sonicating phosphatidylinositol-4,5-diphosphate (PIP2), phosphatidylethanolamine (PE), and Na-cholate in the assay buffer for 10 minutes, adding MgCL2 and incubating on ice for 20 minutes, for final concentrations of 25 μM PIP2, 300 μM PE, 0.02% Na-cholate, and 10 mM MgCl2 in the reaction. The reactions were started by adding equal volumes lipid and enzyme mixture in a total volume of 50 μL, allowed to run for 20 minutes at room temperature, and stopped with 100 μL 75 mM H3PO4. The lipid product was transferred to a glass fiber filter plate and washed with 75 mM H3PO4 several times. The presence of radioactive lipid product (PIP3) was measured by adding Wallac Optiphase mix to each well and counting in a Wallac 1450 Trilux plate reader (PerkinElmer Life Sciences Inc., Boston, Mass. 02118). The IC50 for each compound tested is reported in μM in Table 1: […]

IC50 [nM]	Molecule
1870	O=C1NC(=S)SC1=Cc1ccc2c(c1)N(C(=O)Nc1ccc(Cl)cc1C(F)(F)F)CCCO2 [Example 120, 2-(4-Oxo-2-thioxo-thiazolidin-5-ylidenemethyl)-7,8-dihydro-6H-5-oxa-9-aza-benzocycloheptene-9-carboxylic acid (4-chloro-2-trifluoromethyl-phenyl)-amide]
33	O=C1NC(=S)SC1=Cc1ccc2c(c1)N(C(=O)Nc1cc(Cl)cc(Cl)c1)CCO2 [Example 76, 6-(4-Oxo-2-thioxo-thiazolidin-5-ylidenemethyl)-2,3-dihydro-benzo[14]oxazine-4-carboxylic acid (3,5-dichloro-phenyl)-amide]
21.7	O=C1NC(=S)SC1=Cc1ccc2c(c1)N(C(=O)C1CCCCC1)CCO2 [Example 2, 5-[4-(1-Cyclohexyl-methanoyl)-3,4-dihydro-2H-benzo[1,4]oxazine-6-ylmethylene]-2-thioxo-thiazolidin-4-one]
2	O=C1NC(=S)SC1=Cc1ccc2c(c1)N(C(=O)Nc1ccc(Cl)cc1)CCO2 [Example 77, 6-(4-Oxo-2-thioxo-thiazolidin-5-ylidenemethyl)-2,3-dihydro-benzo[1,4]oxazine-4-carboxylic acid (4-chloro-phenyl)-amide]
5	CCCCC(=O)N1CCOc2ccc(C=C3SC(=S)NC3=O)cc21 [Example 96, 5-(4-Pentanoyl-3,4-dihydro-2H-1,4-benzoxazin-6-ylmethylene)-2-thioxo-thiazolidin-4-one]
735	CCC(C(=O)N1CCOc2ccc(C=C3SC(=S)NC3=O)cc21)c1ccccc1 (stereo not shown) [Example 30, 5-[4-(2-Phenyl-butyryl)-3,4-dihydro-2H-1,4-benzoxazin-6-ylmethylene]-2-thioxo-thiazolidin-4-one]
535	CC(=O)OC(C)C(=O)N1CCOc2ccc(C=C3SC(=S)NC3=O)cc21 (stereo not shown) [Example 100, Acetic acid 1-methyl-2-oxo-2-[6-(4-oxo-2-thioxo-thiazolidin-5-ylidenemethyl)-2,3-dihydro-1,4-benzoxazin-4-yl]-ethyl ester]
179	CC(C)C(C)C(=O)N1CCOc2ccc(C=C3SC(=S)NC3=O)cc21 (stereo not shown) [Example 86, 5-[4-(2,3-Dimethyl-butyryl)-3,4-dihydro-2H-benzo[1,4]oxazin-6-ethylene]-2-thioxo-thiazolidin-4-one]
115	CN1CCN(Cc2ccc(C(=O)N3CCOc4ccc(C=C5SC(=S)NC5=O)cc43)cc2)CC1 [Example 74]
115	5-(9-Cyclopropanecarbonyl-6,7,8,9-tetrahydro-5-oxa-9-aza-benzocyclohepten-2-ylmethylene)-2-thioxo-thiazolidin-4-one [Example 104]
565	O=C1NC(=S)SC1=Cc1ccc2c(c1)N(C(=O)c1cnc3ccccc3n1)CCO2 [Example 43, 5-[4-(Quinoxaline-2-carbonyl)-3,4-dihydro-2H-1,4-benzoxazin-6-ylmethylene]-2-thioxo-thiazolidin-4-one]
1870	O=C1NC(=S)SC1=Cc1ccc2c(c1)N(C(=O)Nc1ccc(Oc3ccccc3)cc1)CCCO2 [Example 118, 2-(4-Oxo-2-thioxo-thiazolidin-5-ylidenemethyl)-7,8-dihydro-6H-5-oxa-9-aza-benzocycloheptene-9-carboxylic acid (4-phenoxy-phenyl)-amide]
2030	O=C1NC(=S)SC1=Cc1ccc2c(c1)N(C(=O)COc1ccc(Cl)cc1)CCCO2 [Example 109, 5-{9-[2-(4-Chloro-phenoxy)-acetyl]-6,7,8,9-tetrahydro-5-oxa-9-aza-benzocyclohepten-2-ylmethylene}-2-thioxo-thiazolidin-4-one]
160	O=C1NC(=S)SC1=Cc1ccc2c(c1)NCCO2 [Example 10, 5-(3,4-dihydro-2H-benzo[1,4]oxazine-6-ylmethylene)-2-thioxo-thiazolidin-4-one]
8	O=C1NC(=S)SC1=Cc1ccc2c(c1)N(C(=O)NC1CCCC1)CCO2 [Example 68, 6-(4-Oxo-2-thioxo-thiazolidin-5-ylidenemethyl)-2,3-dihydro-1,4-benzoxazine-4-carboxylic acid cyclopentylamide]
7	O=C1NC(=S)SC1=Cc1ccc2c(c1)N(C(=O)C=Cc1ccccc1)CCO2 [Example 37, 5-[4-(3-Phenyl-acryloyl)-3,4-dihydro-2H-1,4-benzoxazin-6-ylmethylene]-2-thioxo-thiazolidin-4-one]
1380	5-[9-(3,4-Dichloro-benzoyl)-6,7,8,9-tetrahydro-5-oxa-9-aza-benzocyclohepten-2-ylmethylene]-2-thioxo-thiazolidin-4-one [Example 114]
330	5-[4-(7,7-Dimethyl-2-oxo-bicyclo[2.2.1]hept-1-ylmethanesulfonyl)-3,4-dihydro-2H-1,4-benzoxazin-6-ylmethylene]-2-thioxo-thiazolidin-4-one [Example 60]
90	CC1CCCCC1C(=O)N1CCOc2ccc(C=C3SC(=S)NC3=O)cc21 (stereo not shown) [Example 91, 5-[4-(2-Methyl-cyclohexanecarbonyl)-3,4-dihydro-2H-benzo[1,4]oxazin-6-ethylene]-2-thioxo-thiazolidin-4-one]
4000	O=C1NC(=S)SC1=Cc1ccc2c(c1)N(C(=O)C1CC1)CCO2 [Example 32, 5-(4-Cyclopropanecarbonyl-3,4-dihydro-2H-1,4-benzoxazin-6-ylmethylene)-2-thioxo-thiazolidin-4-one]
265	O=C1NC(=S)SC1=Cc1ccc2c(c1)N(C(=O)c1sccc1Cl)CCO2 [Example 53, 5-[4-(3-Chloro-thiophene-2-carbonyl)-3,4-dihydro-2H-1,4-benzoxazin-6-ylmethylene]-2-thioxo-thiazolidin-4-one]
640	COC(=O)c1ccc(OC(=O)N2CCCOc3ccc(C=C4SC(=S)NC4=O)cc32)cc1 [Example 108, 2-(4-Oxo-2-thioxo-thiazolidin-5-ylidenemethyl)-7,8-dihydro-6H-5-oxa-9-aza-benzocycloheptene-9-carboxylic acid 4-methoxycarbonyl-phenyl ester]
4000	O=C1NC(=S)SC1=Cc1ccc2c(c1)N(C(=O)NCCc1cccs1)CCO2 [Example 64, 6-(4-Oxo-2-thioxo-thiazolidin-5-ylidenemethyl)-2,3-!dihydro-1,4-benzoxazine-4-carboxylic acid (2-thiophen-2-yl-ethyl)-amide]
36	O=C1NC(=S)SC1=Cc1ccc2c(c1)N(C(=O)Cc1cccs1)CCO2 [Example 35, 5-[4-(2-Thiophen-2-yl-acetyl)-3,4-dihydro-2H-1,4-benzoxazin-6-ylmethylene]-2-thioxo-thiazolidin-4-one]
3500	2-(4-Oxo-2-thioxo-thiazolidin-5-ylidenemethyl)-7,8-dihydro-6H-5-oxa-9-aza-benzocycloheptene-9-carboxylic acid p-tolylamide [Example 110]
32	O=C1NC(=S)SC1=Cc1ccc2c(c1)N(C(=O)Nc1ccccc1)CCO2 [Example 58, 6-(4-Oxo-2-thioxo-thiazolidin-5-ylidenemethyl)-2,3-dihydro-1,4-benzoxazine-4-carboxylic acid phenylamide]

Molecule	IC50 [nM]
O=C1NC(=S)SC1=Cc1ccc2c(c1)N(C(=O)c1cccnc1)CCO2 [Example 13]	410
O=C1NC(=S)SC1=Cc1ccc2c(c1)N(C(=O)c1ccncc1)CCO2 [Example 12]	410
